# Results: US20110294772A1, “USE OF CYCLOSQUARAMIDE COMPOUNDS AS ANTI-TUMOUR AGENTS” (priority 2008, published 2011)
# Tests used:
# [1] = tested on: U251; experiment: cell viability assay; format: cell-based, human; details: U251 glioblastoma, 72 h, with respect to untreated control cells
# [2] = tested on: Rec-1; experiment: cell viability assay; format: cell-based, human; details: Rec-1 B-cell lymphoma (MCL), 48 h, with respect to untreated control cells
# [3] = tested on: Granta-519; experiment: cell viability assay; format: cell-based, human; details: Granta-519 B-cell lymphoma (MCL), 48 h, with respect to untreated control cells
# [4] = tested on: panel of NCl60 cell lines; experiment: IC50 in NCI60 panel (overall); format: cell-based; details: Homo sapiens, general order, read-out: antitumor activity (IC50) in general
# Description: (§1) On the other hand, the values of IC50 were determined in the panel of NCl60 cell lines for compound 10.
# (§2) A total of 2 independent experiments were carried out with assays in triplicate for the compound and cell line. All those assays where an IC50 value was not reached in the highest concentration of 1E-05 M are represented by “>1E-05”. In these cases, the standard deviation cannot be calculated and for that reason it is calculated as “-”.
# [5] = tested on: A-498 (Renal); experiment: NCI60 panel IC50; format: cell-based; details: Homo sapiens, A498
# Description: as §1, §2
# [6] = tested on: ADR-RE-3 (Breast); experiment: NCI60 panel IC50; format: cell-based; details: Homo sapiens
# Description: as §1, §2
# [7] = tested on: Caki-1 (Renal); experiment: NCI60 panel IC50; format: cell-based; details: Homo sapiens
# Description: as §1, §2
# [8] = tested on: DAUDI (Leukaemia); experiment: NCI60 panel IC50; format: cell-based; details: Homo sapiens
# Description: as §1, §2
# [9] = tested on: DU-145 (Prostate); experiment: NCI60 panel IC50; format: cell-based; details: Homo sapiens
# Description: as §1, §2
# [10] = tested on: EKVX (Lung); experiment: NCI60 panel IC50; format: cell-based; details: Homo sapiens
# Description: as §1, §2
# [11] = tested on: HOP-92 (Lung); experiment: NCI60 panel IC50; format: cell-based; details: Homo sapiens
# Description: as §1, §2
# [12] = tested on: IGR-OVI (Ovarian); experiment: NCI60 panel IC50; format: cell-based; details: Homo sapiens
# Description: as §1, §2
# [13] = tested on: M-14 (Melanoma); experiment: NCI60 panel IC50; format: cell-based; details: Homo sapiens, M14
# Description: as §1, §2
# [14] = tested on: MDA-MB-231 (Breast); experiment: NCI60 panel IC50; format: cell-based; details: Homo sapiens
# Description: as §1, §2
# [15] = tested on: MDA-MB-435 S (Breast); experiment: NCI60 panel IC50; format: cell-based; details: Homo sapiens
# Description: as §1, §2
# [16] = tested on: MDA-MB-468 (Breast); experiment: NCI60 panel IC50; format: cell-based; details: Homo sapiens
# Description: as §1, §2
# [17] = tested on: NCI-H226 (Lung); experiment: NCI60 panel IC50; format: cell-based; details: Homo sapiens
# Description: as §1, §2
# [18] = tested on: RXF-393 (Renal); experiment: NCI60 panel IC50; format: cell-based; details: Homo sapiens
# Description: as §1, §2
# [19] = tested on: SF-268 (CNS); experiment: NCI60 panel IC50; format: cell-based; details: Homo sapiens, 2 experiments in triplicate
# Description: as §1, §2
# [20] = tested on: SK-OV-3 (Ovarian); experiment: NCI60 panel IC50; format: cell-based; details: Homo sapiens
# Description: as §1, §2
# [21] = tested on: SN 12C (Renal); experiment: NCI60 panel IC50; format: cell-based; details: Homo sapiens, SN12C
# Description: as §1, §2
smiles,measurement,setting,value
CN1CCCNc2c(c(=O)c2=O)NCCCN(C)CCCNc2c(c(=O)c2=O)NCCCN(C)CCCNc2c(c(=O)c2=O)NCCCN(C)CCCNc2c(c(=O)c2=O)NCCCN(C)CCCNc2c(c(=O)c2=O)NCCC1 [Compound 10],% Cell viability,[1],85%
same,% Cell viability,[2],44%
same,% Cell viability,[3],58%
same,IC50,[4],1000 to 10000 nM
same,IC50,[5],7500 nM
same,IC50,[6],1620 nM
same,IC50,[7],5750 nM
same,IC50,[8],1990 nM
same,IC50,[9],1800 nM
same,IC50,[10],2750 nM
same,IC50,[11],3530 nM
same,IC50,[12],2380 nM
same,IC50,[13],7210 nM
same,IC50,[14],2320 nM
same,IC50,[15],3660 nM
same,IC50,[16],2370 nM
same,IC50,[17],1530 nM
same,IC50,[18],2770 nM
same,IC50,[19],5610 nM
same,IC50,[20],3100 nM
same,IC50,[21],4120 nM
